Measurements from ChEMBL document CHEMBL4414590, “Discovery of SIAIS178 as an Effective BCR-ABL Degrader by Recruiting Von Hippel-Lindau (VHL) E3 Ubiquitin Ligase” (J Med Chem, 2019).
Activity calls are given as the source filed them. The calls are words filed in the database; no cut-off is given here.

Tests used:
K562 [1] = assay: Growth inhibition of human K562 cells incubated for 2 days by CCK8 assay; assay type: functional, cell-based; settings: K562, 48 h
[2] = biological target: Tyrosine-protein kinase ABL1 (Homo sapiens) (UniProt P00519); assay: Binding affinity to human non-phosphorylated ABL1 (S229 to K512 residues) expressed in mammalian expression system assessed as residual binding level at 10 uM by Kinomescan method relative to control
[3] = biological target: T1, von Hippel-Lindau disease tumor suppressor/Tyrosine-protein kinase ABL1/Breakpoint cluster region protein (Homo sapiens, UniProt P00519+P11274+P40337); assay: Induction of ternary complex formation between VHL and BCR-ABL (unknown origin) expressed in HEK293 cells expressing N-terminal BCR-ABL LgBit fusion protein and N-terminal SmBit-VHL fusion protein incubated for 1 hr by NanoBit technology based luciferase complementation assay; assay type: cell-based
Target sequence in this assay (P00519 whole entry, looked up, the tested form may be a part): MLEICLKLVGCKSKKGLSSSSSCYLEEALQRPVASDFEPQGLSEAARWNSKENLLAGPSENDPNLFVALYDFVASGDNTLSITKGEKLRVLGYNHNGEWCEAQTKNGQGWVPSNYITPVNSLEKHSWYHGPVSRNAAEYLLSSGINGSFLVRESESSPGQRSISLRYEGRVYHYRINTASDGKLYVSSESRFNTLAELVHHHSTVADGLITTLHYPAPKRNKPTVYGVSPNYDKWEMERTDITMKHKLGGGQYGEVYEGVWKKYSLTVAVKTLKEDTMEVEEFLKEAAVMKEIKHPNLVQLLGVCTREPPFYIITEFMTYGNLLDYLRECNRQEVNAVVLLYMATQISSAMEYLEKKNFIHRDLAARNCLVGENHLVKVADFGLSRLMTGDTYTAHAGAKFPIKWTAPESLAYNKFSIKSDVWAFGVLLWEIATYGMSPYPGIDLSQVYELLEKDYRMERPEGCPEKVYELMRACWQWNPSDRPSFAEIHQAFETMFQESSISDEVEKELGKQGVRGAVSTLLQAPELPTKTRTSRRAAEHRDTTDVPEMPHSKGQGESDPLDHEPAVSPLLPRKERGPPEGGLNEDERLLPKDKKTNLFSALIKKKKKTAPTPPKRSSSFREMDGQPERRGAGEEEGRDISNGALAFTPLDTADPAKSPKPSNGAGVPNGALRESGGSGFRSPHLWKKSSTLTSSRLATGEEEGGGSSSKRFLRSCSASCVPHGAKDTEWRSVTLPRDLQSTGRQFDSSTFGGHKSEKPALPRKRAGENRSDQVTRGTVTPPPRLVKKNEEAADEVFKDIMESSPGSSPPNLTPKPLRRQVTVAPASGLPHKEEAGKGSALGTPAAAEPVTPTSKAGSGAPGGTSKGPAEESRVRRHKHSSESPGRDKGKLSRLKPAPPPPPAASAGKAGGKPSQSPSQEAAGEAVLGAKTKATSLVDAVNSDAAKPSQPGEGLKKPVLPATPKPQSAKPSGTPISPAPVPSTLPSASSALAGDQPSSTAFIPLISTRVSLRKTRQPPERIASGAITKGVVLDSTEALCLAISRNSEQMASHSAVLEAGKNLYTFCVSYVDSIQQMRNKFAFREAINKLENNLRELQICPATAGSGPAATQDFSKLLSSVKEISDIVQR
Target sequence in this assay (P11274 whole entry, looked up, the tested form may be a part): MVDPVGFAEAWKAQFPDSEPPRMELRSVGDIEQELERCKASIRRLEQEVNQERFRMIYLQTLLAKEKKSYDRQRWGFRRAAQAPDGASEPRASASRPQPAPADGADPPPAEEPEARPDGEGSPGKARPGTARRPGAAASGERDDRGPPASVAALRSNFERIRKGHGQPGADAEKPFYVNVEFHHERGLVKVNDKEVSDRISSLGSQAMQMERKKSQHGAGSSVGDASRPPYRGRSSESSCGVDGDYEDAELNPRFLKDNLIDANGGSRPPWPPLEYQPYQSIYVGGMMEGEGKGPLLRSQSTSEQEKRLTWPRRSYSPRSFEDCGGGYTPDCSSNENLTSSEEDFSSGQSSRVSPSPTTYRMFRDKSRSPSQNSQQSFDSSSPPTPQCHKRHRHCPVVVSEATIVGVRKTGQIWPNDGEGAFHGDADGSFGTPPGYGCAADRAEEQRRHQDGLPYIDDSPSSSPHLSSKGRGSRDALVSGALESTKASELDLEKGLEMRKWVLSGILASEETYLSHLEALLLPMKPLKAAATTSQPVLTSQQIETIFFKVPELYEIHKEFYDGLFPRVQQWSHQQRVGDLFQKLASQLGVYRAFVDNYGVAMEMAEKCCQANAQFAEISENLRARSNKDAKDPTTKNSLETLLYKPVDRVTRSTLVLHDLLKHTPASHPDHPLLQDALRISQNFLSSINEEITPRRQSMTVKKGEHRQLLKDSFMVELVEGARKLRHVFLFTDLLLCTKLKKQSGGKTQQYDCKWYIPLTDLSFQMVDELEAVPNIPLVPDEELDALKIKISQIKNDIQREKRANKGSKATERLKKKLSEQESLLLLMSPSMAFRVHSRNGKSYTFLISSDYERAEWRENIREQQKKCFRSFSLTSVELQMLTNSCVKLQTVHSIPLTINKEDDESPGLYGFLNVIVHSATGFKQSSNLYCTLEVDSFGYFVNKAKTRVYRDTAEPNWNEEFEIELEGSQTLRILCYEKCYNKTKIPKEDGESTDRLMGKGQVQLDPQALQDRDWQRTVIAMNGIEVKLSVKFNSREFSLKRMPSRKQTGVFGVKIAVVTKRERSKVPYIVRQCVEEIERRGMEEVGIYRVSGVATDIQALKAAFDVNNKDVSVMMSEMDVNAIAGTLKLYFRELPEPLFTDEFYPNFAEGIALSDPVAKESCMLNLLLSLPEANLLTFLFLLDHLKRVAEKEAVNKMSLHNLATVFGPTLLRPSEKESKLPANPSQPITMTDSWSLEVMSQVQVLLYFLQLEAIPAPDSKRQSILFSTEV
Target sequence in this assay (P40337 whole entry, looked up, the tested form may be a part): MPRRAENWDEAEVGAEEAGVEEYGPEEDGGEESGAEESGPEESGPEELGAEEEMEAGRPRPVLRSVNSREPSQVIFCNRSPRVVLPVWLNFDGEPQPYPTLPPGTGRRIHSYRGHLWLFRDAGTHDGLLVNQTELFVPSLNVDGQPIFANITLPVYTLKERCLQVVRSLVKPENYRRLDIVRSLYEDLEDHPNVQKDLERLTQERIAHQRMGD

[4] = biological target: Tyrosine-protein kinase ABL1 (Homo sapiens) (UniProt P00519); assay: Binding affinity to human phosphorylated ABL1 (S229 to K512 residues) expressed in mammalian expression system assessed as residual binding level at 10 uM by Kinomescan method relative to control
[5] = Permeability in human Caco2 cells at 10 uM incubated for 120 mins by LC-MS/MS analysis; assay type: ADME, cell-based; settings: caco-2, 2 h
[6] = biological target: T1, von Hippel-Lindau disease tumor suppressor/Tyrosine-protein kinase ABL1/Breakpoint cluster region protein; assay: Induction of ternary complex formation between VHL and BCR-ABL (unknown origin) expressed in HEK293 cells expressing N-terminal BCR-ABL LgBit fusion protein and N-terminal SmBit-VHL fusion protein at 1 uM incubated for 1 hr by NanoBit technology based luciferase complementation assay; assay type: cell-based
Target sequence in this assay (P00519 whole entry, looked up, the tested form may be a part): as the sequence (P00519 whole entry, looked up, the tested form may be a part) above
Target sequence in this assay (P11274 whole entry, looked up, the tested form may be a part): as the sequence (P11274 whole entry, looked up, the tested form may be a part) above
Target sequence in this assay (P40337 whole entry, looked up, the tested form may be a part): as the sequence (P40337 whole entry, looked up, the tested form may be a part) above

K562 [7] = assay: Induction of cell death in human K562 cells assessed as reduction in cell viability at 20 times IC50 incubated for 12 hrs followed by drug wash-out and incubation in drug-free medium up to 144 hrs by CCK8 assay; assay type: functional, cell-based
[8] = biological target: T2, Bcr/Abl fusion protein (Homo sapiens) (UniProt P00519+P11274); assay: Inhibition of BCR-ABL in human K562 cells assessed as reduction in STAT5 phosphorylation at 1 to 100 nM by Western blot analysis; assay type: cell-based
K562 [9] = assay: Antitumor activity against luciferse expressing human K562 cells xenografted in NOD/SCID mouse assessed as attenuation of tumor progression at 5 to 15 mg/kg, ip QD for 12 days by serial volumetric analysis; assay type: functional, organism-based
[10] = biological target: T1, von Hippel-Lindau disease tumor suppressor/Tyrosine-protein kinase ABL1/Breakpoint cluster region protein; assay: Protac activity against VHL/BCR-ABL in human K562 cells assessed as induction of BCR-ABL degradation at 1 to 100 nM by Western blot analysis; assay type: cell-based
Target sequence in this assay (P00519 whole entry, looked up, the tested form may be a part): as the sequence (P00519 whole entry, looked up, the tested form may be a part) above
Target sequence in this assay (P11274 whole entry, looked up, the tested form may be a part): as the sequence (P11274 whole entry, looked up, the tested form may be a part) above
Target sequence in this assay (P40337 whole entry, looked up, the tested form may be a part): as the sequence (P40337 whole entry, looked up, the tested form may be a part) above

Mus musculus = assay: Inhibition of BCR-ABL phosphorylation in NOD/SCID mouse xenografted with luciferse expressing human K562 cells at 5 to 15 mg/kg, ip QD for 4 days by Western blotting analysis; assay type: functional, organism-based
[11] = biological target: T2, Bcr/Abl fusion protein (Homo sapiens); assay: Inhibition of BCR-ABL phosphorylation in human K562 cells at 1 to 100 nM by Western blot analysis; assay type: cell-based
[12] = biological target: T1, von Hippel-Lindau disease tumor suppressor/Tyrosine-protein kinase ABL1/Breakpoint cluster region protein; assay: Protac activity against VHL/BCR-ABL in NOD/SCID mouse xenografted with luciferse expressing human K562 cells assessed as induction of BCR-ABL degradation at 15 mg/kg, ip QD for 4 days by Western blotting analysis; assay type: functional, organism-based
Target sequence in this assay (P00519 whole entry, looked up, the tested form may be a part): as the sequence (P00519 whole entry, looked up, the tested form may be a part) above
Target sequence in this assay (P11274 whole entry, looked up, the tested form may be a part): as the sequence (P11274 whole entry, looked up, the tested form may be a part) above
Target sequence in this assay (P40337 whole entry, looked up, the tested form may be a part): as the sequence (P40337 whole entry, looked up, the tested form may be a part) above

K562 [13] = assay: Growth inhibition of human K562 cells assessed as reduction in cell density at 20 times IC50 incubated for 12 hrs followed by drug wash-out and incubation in drug-free medium up to 144 hrs by CCK8 assay; assay type: functional, cell-based
[14] = biological target: T1, von Hippel-Lindau disease tumor suppressor/Tyrosine-protein kinase ABL1/Breakpoint cluster region protein; assay: Protac activity against VHL/BCR-ABL in human K562 cells assessed as induction of BCR-ABL degradation by Western blot analysis; assay type: cell-based
Target sequence in this assay (P00519 whole entry, the tested form may be a part): as the sequence (P00519 whole entry, looked up, the tested form may be a part) above
Target sequence in this assay (P11274 whole entry, the tested form may be a part): as the sequence (P11274 whole entry, looked up, the tested form may be a part) above
Target sequence in this assay (P40337 whole entry, the tested form may be a part): as the sequence (P40337 whole entry, looked up, the tested form may be a part) above

K562 [15] = assay: Antitumor activity against luciferse expressing human K562 cells xenografted in NOD/SCID mouse assessed as attenuation of tumor progression at 5 mg/kg, ip QD for 12 days by serial volumetric analysis; assay type: functional, organism-based

Sequence of Tyrosine-protein kinase ABL1 (Homo sapiens) (P00519 whole entry, the tested form may be a part): as the sequence (P00519 whole entry, looked up, the tested form may be a part) above
T2 sequence (P00519 whole entry, looked up, the tested form may be a part): as above
T2 sequence (P11274 whole entry, looked up, the tested form may be a part): as the sequence (P11274 whole entry, looked up, the tested form may be a part) above

Cc1nc(Nc2ncc(C(=O)Nc3c(C)cccc3Cl)s2)cc(N2CCN(CCCCCNC(=O)CCCCCCCCC(=O)N[C@H](C(=O)N3C[C@H](O)C[C@H]3C(=O)NCc3ccc(-c4scnc4C)cc3)C(C)(C)C)CC2)n1
IC50 (K562 [1]): 6.9 nM

Cc1nc(Nc2ncc(C(=O)Nc3c(C)cccc3Cl)s2)cc(N2CCN(C(=O)CCCCCOCCOCCOCCCCCC(=O)N[C@H](C(=O)N3C[C@H](O)C[C@H]3C(=O)NCc3ccc(-c4scnc4C)cc3)C(C)(C)C)CC2)n1
IC50 (K562 [1]): 14.9 nM

Cc1nc(Nc2ncc(C(=O)Nc3c(C)cccc3Cl)s2)cc(N2CCN(C(=O)COCCOCCOCC(=O)N[C@H](C(=O)N3C[C@H](O)C[C@H]3C(=O)NCc3ccc(-c4scnc4C)cc3)C(C)(C)C)CC2)n1
Activity [2]: Active
Activity [3]: Active
Activity [4]: Active
permeability [5]: Permeable

Cc1nc(Nc2ncc(C(=O)Nc3c(C)cccc3Cl)s2)cc(N2CCN(C(=O)CCCCCCC(=O)N[C@H](C(=O)N3C[C@@H](O)C[C@H]3C(=O)NCc3ccc(-c4scnc4C)cc3)C(C)(C)C)CC2)n1
Activity [6]: inactive
Activity (K562 [7]): inactive
inhibition [8]: Active
Activity (K562 [9]): inactive
Activity [10]: inactive
inhibition (Mus musculus): Active
inhibition [11]: Active
Activity [12]: inactive
growth inhibition (GI) (K562 [13]): inactive

Cc1nc(Nc2ncc(C(=O)Nc3c(C)cccc3Cl)s2)cc(N2CCN(C(=O)CCCCCCCC(=O)N[C@H](C(=O)N3C[C@H](O)C[C@H]3C(=O)NCc3ccc(-c4scnc4C)cc3)C(C)(C)C)CC2)n1
DC50 [14]: 37.9 nM
IC50 (K562 [1]): 22.4 nM

Cc1nc(Nc2ncc(C(=O)Nc3c(C)cccc3Cl)s2)cc(N2CCN(C(=O)CCOCCOCCC(=O)N[C@H](C(=O)N3C[C@H](O)C[C@H]3C(=O)NCc3ccc(-c4scnc4C)cc3)C(C)(C)C)CC2)n1
IC50 (K562 [1]): 670 nM

Cc1nc(Nc2ncc(C(=O)Nc3c(C)cccc3Cl)s2)cc(N2CCN(C(=O)CCOCCOCCOCCC(=O)N[C@H](C(=O)N3C[C@H](O)C[C@H]3C(=O)NCc3ccc(-c4scnc4C)cc3)C(C)(C)C)CC2)n1
IC50 (K562 [1]): 3430 nM

Cc1nc(Nc2ncc(C(=O)Nc3c(C)cccc3Cl)s2)cc(N2CCN(CCO)CC2)n1 [DASATINIB]
Activity (K562 [7]): inactive
Activity (K562 [15]): Active
IC50 (K562 [1]): 0.9 nM
growth inhibition (GI) (K562 [13]): inactive

Cc1nc(Nc2ncc(C(=O)Nc3c(C)cccc3Cl)s2)cc(N2CCN(C(=O)CCCc3cn(CCCC(=O)N[C@H](C(=O)N4C[C@H](O)C[C@H]4C(=O)NCc4ccc(-c5scnc5C)cc4)C(C)(C)C)nn3)CC2)n1
IC50 (K562 [1]): 12 nM

Cc1nc(Nc2ncc(C(=O)Nc3c(C)cccc3Cl)s2)cc(N2CCN(C(=O)COCCOCC(=O)N[C@H](C(=O)N3C[C@H](O)C[C@H]3C(=O)NCc3ccc(-c4scnc4C)cc3)C(C)(C)C)CC2)n1
IC50 (K562 [1]): 2240 nM

Cc1nc(Nc2ncc(C(=O)Nc3c(C)cccc3Cl)s2)cc(N2CCN(C(=O)CCCCCCCCCCCCCCC(=O)N[C@H](C(=O)N3C[C@H](O)C[C@H]3C(=O)NCc3ccc(-c4scnc4C)cc3)C(C)(C)C)CC2)n1
IC50 (K562 [1]): 32.3 nM

Cc1nc(Nc2ncc(C(=O)Nc3c(C)cccc3Cl)s2)cc(N2CCN(C(=O)CCCCC(=O)N[C@H](C(=O)N3C[C@H](O)C[C@H]3C(=O)NCc3ccc(-c4scnc4C)cc3)C(C)(C)C)CC2)n1
DC50 [14]: 34.7 nM
IC50 (K562 [1]): 89 nM

Cc1nc(Nc2ncc(C(=O)Nc3c(C)cccc3Cl)s2)cc(N2CCN(C(=O)CCCCNC(=O)CCCCCCCCC(=O)N[C@H](C(=O)N3C[C@H](O)C[C@H]3C(=O)NCc3ccc(-c4scnc4C)cc3)C(C)(C)C)CC2)n1
IC50 (K562 [1]): 72 nM

Cc1nc(Nc2ncc(C(=O)Nc3c(C)cccc3Cl)s2)cc(N2CCN(C(=O)CCCCCCCCC(=O)N[C@H](C(=O)N3C[C@H](O)C[C@H]3C(=O)NCc3ccc(-c4scnc4C)cc3)C(C)(C)C)CC2)n1
DC50 [14]: 10.1 nM
IC50 (K562 [1]): 14.3 nM

Cc1nc(Nc2ncc(C(=O)Nc3c(C)cccc3Cl)s2)cc(N2CCN(C(=O)CCCCCCCCCCCCC(=O)N[C@H](C(=O)N3C[C@H](O)C[C@H]3C(=O)NCc3ccc(-c4scnc4C)cc3)C(C)(C)C)CC2)n1
IC50 (K562 [1]): 14.4 nM

Cc1nc(Nc2ncc(C(=O)Nc3c(C)cccc3Cl)s2)cc(N2CCN(C(=O)CCCCCC(=O)N[C@H](C(=O)N3C[C@H](O)C[C@H]3C(=O)NCc3ccc(-c4scnc4C)cc3)C(C)(C)C)CC2)n1
DC50 [14]: 17.9 nM
IC50 (K562 [1]): 37.6 nM

Cc1nc(Nc2ncc(C(=O)Nc3c(C)cccc3Cl)s2)cc(N2CCN(C(=O)CCOCCOCCOCCOCCOCCC(=O)N[C@H](C(=O)N3C[C@H](O)C[C@H]3C(=O)NCc3ccc(-c4scnc4C)cc3)C(C)(C)C)CC2)n1
IC50 (K562 [1]): 1610 nM

Cc1nc(Nc2ncc(C(=O)Nc3c(C)cccc3Cl)s2)cc(N2CCN(CCCCCCOCCOCCOCCCCCC(=O)N[C@H](C(=O)N3C[C@H](O)C[C@H]3C(=O)NCc3ccc(-c4scnc4C)cc3)C(C)(C)C)CC2)n1
IC50 (K562 [1]): 3.4 nM

Cc1nc(Nc2ncc(C(=O)Nc3c(C)cccc3Cl)s2)cc(N2CCN(C(=O)CCC(=O)N[C@H](C(=O)N3C[C@H](O)C[C@H]3C(=O)NCc3ccc(-c4scnc4C)cc3)C(C)(C)C)CC2)n1
DC50 [14]: 611 nM
IC50 (K562 [1]): 78 nM

Cc1nc(Nc2ncc(C(=O)Nc3c(C)cccc3Cl)s2)cc(N2CCN(C(=O)CCOCCOCCOCCOCCC(=O)N[C@H](C(=O)N3C[C@H](O)C[C@H]3C(=O)NCc3ccc(-c4scnc4C)cc3)C(C)(C)C)CC2)n1
IC50 (K562 [1]): 2160 nM

Cc1nc(Nc2ncc(C(=O)Nc3c(C)cccc3Cl)s2)cc(N2CCN(C(=O)CNC(=O)CCCC(=O)N[C@H](C(=O)N3C[C@H](O)C[C@H]3C(=O)NCc3ccc(-c4scnc4C)cc3)C(C)(C)C)CC2)n1
IC50 (K562 [1]): 68.2 nM

Cc1nc(Nc2ncc(C(=O)Nc3c(C)cccc3Cl)s2)cc(N2CCN(C(=O)CCCC(=O)N[C@H](C(=O)N3C[C@H](O)C[C@H]3C(=O)NCc3ccc(-c4scnc4C)cc3)C(C)(C)C)CC2)n1
DC50 [14]: 40.2 nM
IC50 (K562 [1]): 87 nM
